What was measured:
OVA/alum-sensitized mice = assay: Asthma studies: ovalbumin sensitization, bronchial lavage, FACS; format: in vivo, mice (BALE/c line)
Procedure: An immune response to ovalbumin was provoked by administering ovalbumin together with aluminium hydroxide. The immune response can be tracked with the help of the T helper cells population (CD4+) which has migrated into the bronchial lining and the eosinophilic granulocytes which have migrated in.
Female mice (BALE/c line) were sensitized by intraperitoneal (i.p.) administration of 50 μg ovalbumin (OVA) dissolved in phosphate buffer (PBS) plus 100 μL aluminium hydroxide (alum) with a total volume of 200 μL per mouse on day 0.100 μg OVA in PBS (50 μL total volume) in each case was then administered intranasally to the OVA/alum-sensitized mice under mild anaesthesia (isoflurane) on days 7 to 10. From these animals groups were formed which additionally received on days 7, 9, and 11 either 250 μg Cs-103 in PBS (i.p.), PBS only (diluent) or no further addition (−). On day 12 all the animals were killed by CO2 exposure and cells of the bronchial tract were obtained by bronchial lavage (BAL) by means of a cannula introduced into the trachea washing three times each with 1 ml cold PBS. The obtained cells of the BAL were then double dyed (a) with Cy-Chrome-conjugated anti-mouse CD4-antibodies and (b) with FITC-conjugated anti-mouse CD62L-antibodies. The cells were then analyzed by means of FACS. Effector/Memory […] T cells were distinguished as CD4^+/CD62L^− lymphocytes and eosinophilic cells with the help of their scattered light properties (FSC/SSC).

[1] = Toxicity test: leukocyte count in blood and spleen; format: in vivo, mice; details: three doses of 250 μg on 1st, 3rd and 5th day, cell count on 6th day; FIGS. 4 and 5
Procedure: FIG. 4 the number of leukocytes in the blood before and after administering three doses (1st, 3rd and 5th day) of 250 μg Cs-103 to each animal (determination on the 6th day); and
FIG. 5 the number of leukocytes in the spleen before and after administering three doses (1st, 3rd and 5th day) of 250 μg Cs-103 to each animal (determination on the 6th day).
As the leukocyte count in blood and spleen increases in the case of inflammatory diseases, the number of these cells was used as toxicity marker. As FIGS. 4 and 5 show, the selected compound Cs-103 (after administering three doses of 250 μg Cs-103, on the 1st, 3rd and 5th day, and cell count determination on the 6th day) is harmless in this assay.

[2] = blood cells vs plasma; cited from earlier work

Structure (SMILES)	number of eosinophilic granulocytes in the lung lavage fluid (OVA/alum-sensitized mice; 250 μg Cs-103, FIG. 3)	number of eosinophilic granulocytes which migrated through ovalbumin sensitization into the bronchial lining (OVA/alum-sensitized mice; 250 μg Cs-103, control: OVA-sensitized animals, FIG. 2)	number of CD4-positive T cells which migrated through ovalbumin sensitization into the bronchial lining (OVA/alum-sensitized mice; 250 μg Cs-103 i.p. on days 7, 9, 11, control: OVA-sensitized animals, FIG. 1)	leukocyte count in blood and spleen as toxicity marker [1]	concentration in blood cells relative to surrounding plasma [2]
CC[C@@H]1NC(=O)[C@H]([C@H](O)[C@H](C)CCN(CCC(=O)N[C@H](CCC(=O)O)C(=O)N[C@H](CCC(=O)O)C(=O)N[C@H](CCC(=O)O)C(=O)N[C@H](CCC(=O)O)C(=O)N[C@H](CCC(=O)O)C(=O)N[C@H](CCC(=O)O)C(=O)NCC(=O)O)C(C)=O)N(C)C(=O)[C@H](C(C)C)N(C)C(=O)[C@H](CC(C)C)N(C)C(=O)[C@H](CC(C)C)N(C)C(=O)[C@@H](C)NC(=O)[C@H](C)NC(=O)[C@H](CC(C)C)N(C)C(=O)[C@H](C(C)C)NC(=O)[C@H](CC(C)C)N(C)C(=O)CN(C)C1=O [Cs-103]	very significantly reduced	very significantly reduced	very significantly reduced	harmless	
C/C=C/C[C@@H](C)[C@@H](O)[C@H]1C(=O)N[C@@H](CC)C(=O)N(C)CC(=O)N(C)[C@@H](CC(C)C)C(=O)N[C@@H](C(C)C)C(=O)N(C)[C@@H](CC(C)C)C(=O)N[C@@H](C)C(=O)N[C@H](COCCO)C(=O)N(C)[C@@H](CC(C)C)C(=O)N(C)[C@@H](CC(C)C)C(=O)N(C)[C@@H](C(C)C)C(=O)N1C [SDZ IMM 125]					approximately 8 ×
